# Measurements: article PMC8000185 (International Journal of Molecular Sciences, 2021)
# Several values for one entry are separate records, joined by “and”; a condition that tells them apart may be missing. Equal values may be shown once. Read-outs that look alike come from different tables or passages of the source.
# Assays:
# [1] = target: T1, urokinase from human kidney cells (human uPA) (Homo sapiens, UniProt P00749); assay: uPA inhibition assay (fluorescence-based, purified enzyme); assay type: biochemical
# T1 construct: low molecular weight active human uPA; purchased Sigma-Aldrich U4010; host or cells: human kidney cells
# NHE1 [2] = target: T2, NHE1 (Homo sapiens, UniProt P19634); assay: Plate-based NHE1 inhibition assay (BCECF pHi recovery, 96-well plate reader); assay type: cell-based; details: for inhibition at 1 µM / inhibition at 10 µM: plate reader
# T2 construct: endogenous in cells; host or cells: MDA-MB-231
# T2 sequence (P19634 whole entry): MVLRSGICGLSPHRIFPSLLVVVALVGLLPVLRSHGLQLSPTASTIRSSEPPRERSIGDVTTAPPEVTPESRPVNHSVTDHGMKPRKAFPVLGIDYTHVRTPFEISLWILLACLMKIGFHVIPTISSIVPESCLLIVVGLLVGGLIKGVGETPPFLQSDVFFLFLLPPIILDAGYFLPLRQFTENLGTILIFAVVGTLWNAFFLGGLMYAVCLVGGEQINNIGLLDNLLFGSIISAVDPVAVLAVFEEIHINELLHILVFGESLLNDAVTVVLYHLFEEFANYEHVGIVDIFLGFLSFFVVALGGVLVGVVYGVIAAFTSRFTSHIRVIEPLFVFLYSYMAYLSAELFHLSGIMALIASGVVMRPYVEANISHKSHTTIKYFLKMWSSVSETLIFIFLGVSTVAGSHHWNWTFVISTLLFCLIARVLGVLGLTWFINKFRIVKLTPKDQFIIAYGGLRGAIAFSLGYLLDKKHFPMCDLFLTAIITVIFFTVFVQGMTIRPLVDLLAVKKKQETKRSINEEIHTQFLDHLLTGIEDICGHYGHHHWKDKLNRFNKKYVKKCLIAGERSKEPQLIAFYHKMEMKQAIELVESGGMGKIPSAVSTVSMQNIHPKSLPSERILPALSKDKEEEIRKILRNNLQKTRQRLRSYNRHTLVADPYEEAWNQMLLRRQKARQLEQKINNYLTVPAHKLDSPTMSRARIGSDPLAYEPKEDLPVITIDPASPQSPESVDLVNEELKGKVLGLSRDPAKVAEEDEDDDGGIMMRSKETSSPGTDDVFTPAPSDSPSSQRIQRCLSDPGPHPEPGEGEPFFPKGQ
# Protocol: To perform NHE1 screening with increased throughput, we adapted the conventional cuvette-based NHE1 activity assay to a simple new 96-well plate format using MDA-MB-231 cells that were compatible with common laboratory fluorescence plate readers (see Section 4 for details).
# Culture media were removed and replaced with 200 µL 0.2% FBS-containing media with incubation for 3–4 h to stimulate NHE1 activity, followed by incubation for 30 min in the presence of 5 µM 2′,7′-bis(carboxyethyl)-5(6)-carboxyfluorescein-acetoxymethyl ester (BCECF-AM, cat #ab143463, Abcam, Cambridge, United Kingdom). Cells were then washed with 100 µL/well Na^+-free acid-load buffer: 10 mM NH4Cl, 1.8 mM CaCl2, 90 mM N-methyl-D-glucamine (from 1 M stock titrated to pH 7.4 with HCl), 5 mM glucose, 15 mM HEPES, 5 mM KCl, 1 mM MgCl2 (pH 7.5, adjusted with KOH), and incubated at 37 °C for a further 30 min. Acid-load buffer was removed and replaced with Na^+-containing assay buffer: 100 mM NaCl, 1.8 mM CaCl2, 5 mM glucose, 15 mM HEPES, 5 mM KCl, 1 mM MgCl2 containing serial dilution of each compound or DMSO vehicle, and changes in fluorescence were read immediately using a BMG Labtech POLARstar OMEGA (BMG Labtech GmbH, Offenburg, Germany) plate reader according to the parameters in Table S1. Compounds were tested at n = 3 technical replicates per concentration per plate. BCECF-AM-free cells were treated with matched concentrations of each compound to correct for intrinsic fluorescence. DMSO was present in all wells at a final concentration of 1% v/v. Inhibition of NHE1-mediated pHi recovery was determined by ratiometric calculation of the change in blank-corrected pH-sensitive fluorescence divided by the isobestic fluorescence for each well over time. […] (0% activity) controls present on each plate. IC50 values were determined through fitting of Log-10 transformed data using the “log(inhibitor) versus normalised response–variable slope” non-linear function in GraphPad PRISM v8.0 software package (GraphPad Software, San Diego, CA, USA).
# NHE1 [3] = target: T2, NHE1; assay: Cuvette-based NHE1 inhibition assay; assay type: cell-based
# Protocol: Performed as described in [53]. Briefly, MDA-MB-231 cells were grown to ~80–90% confluence on glass coverslips. Then, 3 µM BCECF were loaded into cells in 400 µL serum-free medium and the fluorescence was measured using a PTI Deltascan spectrofluorometer (Horiba Ltd., Kyoto, Japan). […] A calibration curve of pHi fluorescence was performed for every sample using nigericin [55]. […] IC50 values were determined through fitting of Log-10 transformed data using the “log(inhibitor) versus normalised response–variable slope” non-linear function in GraphPad PRISM v8.0 software package (GraphPad Software, San Diego, USA).
# [4] = Cell viability (cytotoxicity) assay; assay type: cell-based; details: human, MDA-MB-231 cells, 48 h treatment
# Protocol: On the day of treatment, respective compounds were serially diluted using a semi-logarithmic dilution series from 20 mM stocks in neat DMSO into DMEM-high glucose media (10% v/v FBS) in a separate 96-well plate and under sterile conditions. Thereafter, 10 μL of the diluted compounds at their respective concentrations (n = 4) were added to the cells. […] Vehicle media blanks or drug blanks were also included to correct for inherent colour of the compounds and phenol red-containing media. Following 48 h treatment, 20 μL CellTitre 96® Aqueous One Solution Cell Proliferation Assay (Promega, Madison, USA) was added to each well, plates were incubated for 2 h, and absorbance was measured at 490 nm using a SpectraMax Plus 384-well plate reader (Molecular Devices LLC, San Jose, USA) and Softmax PRO v7.0 software. Blank-corrected data were analysed and graphed using GraphPad PRISM v8.0 software (GraphPad Software, San Diego, CA USA).
# [5] = target: T3, MDA-MB-231 cell-surface uPA (HMW human active uPA bound to uPAR) (Homo sapiens, UniProt P00749); assay: Cell-surface uPA activity assay; assay type: cell-based; details: average ± SEM from four independent assays
# T3 construct: pre-incubated with active high molecular weight (HMW) uPA; purchased Molecular Innovations HTC-UPA; host or cells: added to MDA-MB-231 cells (endogenous uPAR)
# Protocol: Having identified non-cytotoxic compounds with the desired target selectivity profiles, we then sought to confirm their uPA inhibitory activities in a more physiologically relevant, whole-cell assay. To this end, the fluorogenic biochemical assay was modified to allow measurement of cell-surface uPA activity in MDA-MB-231 cells, which are known to express uPAR [38, 39]. To maximise enzymatic activity, the cells were pre-incubated with active high molecular weight (HMW) uPA to saturate unoccupied uPAR present at the cell surface.
# MDA-MB-231 cells were seeded into Greiner CELLSTAR black 96-well plates (Greiner Bio-one, cat #655079) at density 10,000 cells/well in a volume of 100 µL media and cultured for 48 h. On the day of the experiment, cell culture media were removed via shakeout, followed by washing with 100 µL 1 × Dulbecco’s PBS/1 mM CaCl2/1 mM MgCl2/0.1% protease-free bovine serum albumin/pH 7.4 wash buffer. Cells were then incubated in the presence of 25 nM HMW human active uPA (Molecular Innovations, San Diego, CA, USA, SKU: HTC-UPA) in wash buffer for 30 min at RT. Unbound HMW uPA was removed via washing twice with 100 µL wash buffer. […] Plates were read immediately following the addition of substrate using a POLARstar OMEGA fluorescence plate reader (BMG Labtech GmbH, Offenburg, Germany) according to the parameters in Table S1.
# ENaC = details: previously showed; cited from earlier work
# [6] = previously showed; cited from earlier work
# NHE1 [7] = details: read-out: NHE1 IC50 (literature); cited from earlier work
# [8] = purified enzyme, Z-Gly-Gly-Arg-AMC substrate, number in parentheses after value, read-out: uPA IC50
# [9] = MDA-MB-231 cells, plate-reader assay, read-out: NHE1 Plate reader IC50
# [10] = MDA-MB-231 cells, cuvette assay, read-out: NHE1 Cuvette IC50
# [11] = plate-reader value as printed in nM in text, read-out: NHE1 IC50
SMILES,"IC50 [1, 8]",inhibition at 1 µM (NHE1 [2]; MDA-MB-231 cells) [%],inhibition at 10 µM (NHE1 [2]; MDA-MB-231 cells) [%],IC50 at 48 h [4] [nM],further results
N=C(N)NC(=O)c1nc(-c2ccc(C(F)(F)F)cc2)c(N2CCCC2)nc1N [compound 39],6190 nM,95,100,23900,IC50 (NHE1 [2]; [9]): 605 ± 134 nM; IC50 (NHE1 [3]; [10]): 441 nM
N=C(N)NC(=O)c1nc(-c2cncnc2)c(N2CCCCCC2)nc1N [compound 24],175 nM and < 300 nM,80,96,> 100000,uPA selectivity ratio ([1]; uPA over NHE1): 1.5; IC50 (NHE1 [2]; [11]): 266 nM and < 300 nM; IC50 (NHE1 [3]; [10]): 397 nM; IC50 [5]: 130 ± 10 nM; ENaC activity in vitro (ENaC): no ENaC activity; K+-sparing or diuretic effects in vivo [6]: no K^+-sparing or diuretic effects
"CC(=O)N1CCC(c2ccc(C(=O)NC(=N)N)cc2C(F)(F)F)CC1 [BI-9627, reference compound]",,,,,"IC50 ([1]; human uPA, fluorometric method, Figure S1, read-out: uPA IC50 (not reached at the highest concentration tested)): > 50000 nM; IC50 (NHE1 [2]; Figure S1 representative curve, n = 3 technical replicates, read-out: NHE1 IC50 of curve shown, plate reader assay): 1.4 nM; IC50 (NHE1 [2]; [9]): 3 ± 0.8 nM; IC50 (NHE1 [3]; Figure S1, n = 6 technical replicates/concentration, read-out: NHE1 IC50, cuvette assay): 7.5 nM; IC50 (NHE1 [7]): 6 nM"
"N=C(N)NC(=O)c1nc(Cl)c(N)nc1N [AML, Amiloride, reference compound]",,7,64,> 100000,IC50 (NHE1 [7]): […]
CCN(c1nc(N)c(C(=O)NC(=N)N)nc1-c1cc2ccccc2o1)C(C)C [compound 33],1600 nM,8,41,17200,decrease in uPA activity on opening the 5-alkylamino ring ([1]; within the 6-(2-benzofuranyl) series): > 5 fold
N=C(N)NC(=O)c1nc(-c2cc3cc(Cl)ccc3o2)c(N)nc1N [compound 10],940 ± 59 nM,0,62,4400,
N=C(N)NC(=O)c1nc(-c2cncnc2)c(N2CCCOCC2)nc1N [compound 42],780 ± 33 nM,39,96,> 100000,
N=C(N)NC(=O)c1nc(-c2cc3ncccc3o2)c(N2CCCCCC2)nc1N [compound 21],38 nM,2,100,43100,
N=C(N)NC(=O)c1nc(Cl)c(N2CCOCC2)nc1N [compound 29],10900 nM,85,100,> 100000,NHE1 selectivity ratio (selectivity over uPA) (NHE1 [2]; NHE1 over uPA): 85 fold; IC50 (NHE1 [2]; [11]): 129 nM; IC50 (NHE1 [3]; [10]): 166 nM
N=C(N)NC(=O)c1nc(-c2cc3ccccc3o2)c(NC2CCCCCC2)nc1N [compound 35],30200 nM,0,0,26200,
N=C(N)NC(=O)c1nc(-c2cc3ccccc3o2)c(NC2CCCC2)nc1N [compound 34],5860 nM,0,0,6200,
